Experimental data as given in patent US6723897B2, “Methods for controlling gibberellin levels” (Monsanto Technology, LLC, priority 1998, dated 2004).

Columns and labels:
[1] = tested on: AX5/antisense CPScc soybean line 46 (R2); experiment: Hilum seed treatment of epicotyl-intensive GA-deficient soybean, seedling height (FIG. 42); type: in vivo, Glycine max; conditions: 8 DAP
Description: These studies are performed on soybean plants engineered to express their GA-deficient phenotype throughout the life cycle via the use of the constitutive FMV promoter (line 719, FMV/antisense CPScc). In contrast to the constitutive FMV promoter, the peak activity of the AX5 promoter is developmentally restricted to the soybean seedling axis (epicotyl) three to five days after the start of imbibition, with limited expression beyond the seedling stage of development. Soybean lines transformed with the […] cassette therefore display an epicotyl-intensive dwarf phenotype. In these lines, inhibition of the hypocotyl is modest; most of the total height reduction in these plants is due to shortening of the epicotyl. Rescue of […] soybean plants therefore presents different technical challenges from those required for rescue of constitutively GA-deficient transgenic dwarf soybean lines containing the […] construct. […] Seed from both lines is produced from greenhouse-grown plants. […] If multiple applications are made to seeds, the previous application is allowed to dry before a subsequent application is made. […] (29° C.) day and 75° F. night (24° C.). Pots are watered as necessary by overhead hand watering. Hypocotyl and epicotyl measurements are made for each plant at various stages of plant growth. […] The results are shown in FIG. 42, where the error bar represents +/-two times the standard error of the mean (n=12-15). […] The upper dashed horizontal line represents the total height of untreated wild-type […] soybeans. Measurements are made 8 days after planting.

[2] = tested on: non-transgenic soybean line A4922; experiment: Field trial of seed coatings under soil compaction / different soils, wild-type soybean; type: in vivo, Glycine max; conditions: for Count (emergence) / Height (total plant height): A4922
Description: The second trial (data reported in Tables 22-24) tested the precursors under conditions of soil compaction.
As noted above, the second trial tested the noted precursors under conditions of soil compaction. These experiments are performed in the same manner as in the first trial, except that the soil is compacted with an all-terrain vehicle.
“Height” equals total plant height in cm.

[3] = tested on: wild-type soybean line A4922; experiment: Field trial of seed coating application rates, wild-type soybean
Description: GA3, GA3-3-acetate, GA5, GA9, and GA12 are evaluated in further field trials. […] The objectives of these tests are: 1) to determine if seed coatings, as compared to imbibition, of GA compounds facilitate rescue of constitutively GA-deficient transgenic dwarf soybeans (transgenic lines 719−2 plus 719+17) without causing elongation of wild-type soybeans (line A4922), and 2) to determine the seed treatment rate ranges for each of the selected GA compounds that would provide rescue of constitutively GA-deficient transgenic dwarf soybeans (transgenic lines 719−2 plus 719+17) without causing elongation of wild-type soybeans (line A4922).
Seeds are treated with GA3, GA5, GA9, GA12, and GA3-3-acetate at rates of 0, 0.1, 1, 10, and 100 μg/seed. These GA compounds are applied to the seeds using a Hege 11 seed treater (Hans-Ulrich Hege GmbH & Co., Waldenburg, Germany); 100% acetone is used as the carrier solvent. The amount of liquid introduced into the seed treater is six fluid ounces/100 lbs seed rate. In addition, GA12 is tested at 50 μg/seed. The untreated control (UTC) consisted of dry, untreated seeds. Seeds of constitutively GA-deficient transgenic dwarf soybean line 719 and wild-type A4922 are sown in both light and heavy soil. The planting depth is 0.5 to 1 inch (1.27 to 2.54 cm); watering is via drip irrigation. The experiment is carried out in three repetitions, using 25 seeds/plot (one five foot (152.4 cm) long row) for line 719, and 75 seeds/plot (two eight foot (243.8 cm) rows) for line A4922. Observations included total emergence, number of dwarfs not rescued, uniformity in plant height, average plant height, visual notes, and digital photos.
In all the experiments reported in Tables 17-24, treatments are replicated three times in a randomized block design. Data are analyzed using LSD (least significant difference) 0.05 probability using the PRM 5.0 Statistical Analysis Program (SAS Institute, North Carolina).

[4] = Heavy soil - Loose, target rate 0.5 μg/seed, Table 23
[5] = Heavy soil - Loose, target rate 4.0 μg/seed, Table 23
[6] = Heavy soil - Loose, target rate 8.0 μg/seed, Table 23
[7] = Heavy soil - Loose, target rate 16.0 μg/seed, Table 23
[8] = Heavy soil - compacted, target rate 0.5 μg/seed, Table 23
[9] = Heavy soil - compacted, target rate 4.0 μg/seed, Table 23
[10] = Heavy soil - compacted, target rate 8.0 μg/seed, Table 23
[11] = Heavy soil - compacted, target rate 16.0 μg/seed, Table 23
[12] = Heavy soil - loose, target rate 0.5 μg/seed, Table 22
[13] = Heavy soil - loose, target rate 2.0 μg/seed, Table 22
[14] = Light soil - Compacted, target rate 0.5 μg/seed, Table 22
[15] = Light soil - Compacted, target rate 2.0 μg/seed, Table 22
[16] = Light soil - Loose, target rate 0.5 μg/seed, Table 24
[17] = Light soil - Loose, target rate 2.0 μg/seed, Table 24
[18] = Light soil - Loose, target rate 4.0 μg/seed, Table 24
[19] = Light soil - compacted, target rate 0.5 μg/seed, Table 24
[20] = Light soil - compacted, target rate 2.0 μg/seed, Table 24
[21] = Light soil - compacted, target rate 4.0 μg/seed, Table 24
[22] = Heavy soil - Loose, target rate 2.0 μg/seed, Table 23
[23] = Heavy soil - compacted, target rate 2.0 μg/seed, Table 23

C=C1C[C@]23C[C@@]1(O)CC[C@H]2[C@@]12C=C[C@H](O)[C@@](C)(C(=O)O1)[C@H]2[C@@H]3C(=O)O [GA3, gibberellic acid]
effect on line 46 total height [1]: rescued AX5/asCPScc soybean line 46 total height, with some hypocotyl over-elongation | Count (emergence) [2, 4]: 25.0 cde | Height (total plant height) [2, 4]: 5.0 efg cm | Count (emergence) [2, 5]: 24.7 de | Height (total plant height) [2, 5]: 8.7 a cm | Count (emergence) [2, 6]: 29.3 a-d | Height (total plant height) [2, 6]: 6.3 cde cm | Count (emergence) [2, 7]: 24.7 dc | Height (total plant height) [2, 7]: 7.0 bc cm | Count (emergence) [2, 8]: 8.3 cd | Height (total plant height) [2, 8]: 4.3 b-e cm | Count (emergence) [2, 9]: 4.0 de | Height (total plant height) [2, 9]: 8.0 a cm | Count (emergence) [2, 10]: 9.7 a-d | Height (total plant height) [2, 10]: 6.0 bc cm | Count (emergence) [2, 11]: 6.3 cde | Height (total plant height) [2, 11]: 6.7 ab cm | Count (emergence) [2, 12]: 25 cde | Height (total plant height) [2, 12]: 5.0 efg cm | Count (emergence) [2, 13]: 21 ef | Height (total plant height) [2, 13]: 6.7 bcd cm | Count (emergence) [2, 14]: 28 bcd | Height (total plant height) [2, 14]: 5.7 def cm | Count (emergence) [2, 15]: 13 ef | Height (total plant height) [2, 15]: 8.0 c cm | Count (emergence) [2, 16]: 43.0 abc | Height (total plant height) [2, 16]: 7.0 ef cm | Count (emergence) [2, 17]: 38.3 bc | Height (total plant height) [2, 17]: 9.0 cd cm | Count (emergence) [2, 18]: 37.7 c | Height (total plant height) [2, 18]: 10.3 b cm | Count (emergence) [2, 19]: 28.3 bcd | Height (total plant height) [2, 19]: 5.7 def cm | Count (emergence) [2, 20]: 12.7 ef | Height (total plant height) [2, 20]: 8.0 c cm | Count (emergence) [2, 21]: 7.7 f | Height (total plant height) [2, 21]: 10.3 b cm | emergence at approximately equivalent biological response (height) ([2]; compacted soil, FIG. 40): 68% | A4922 Height, cm, Heavy soil ([3]; 0.1 μg compound per seed): 5.7 efg cm | A4922 Height, cm, Light soil ([3]; 0.1 μg compound per seed): 6.7 fg·cm | No. A4922 Emerged, Heavy soil ([3]; 0.1 μg compound per seed): 28.0 c-g | No. A4922 Emerged, Light soil ([3]; 0.1 μg compound per seed): 42.7 e-i | A4922 Height, cm, Heavy soil ([3]; 1 μg compound per seed): 6.0 efg cm | A4922 Height, cm, Light soil ([3]; 1 μg compound per seed): 8.3 ef cm | No. A4922 Emerged, Heavy soil ([3]; 1 μg compound per seed): 16.7 g | No. A4922 Emerged, Light soil ([3]; 1 μg compound per seed): 36.3 i | A4922 Height, cm, Heavy soil ([3]; 10 μg compound per seed): 10.3 cm·days | A4922 Height, cm, Light soil ([3]; 10 μg compound per seed): 12.7 cm·days | No. A4922 Emerged, Heavy soil ([3]; 10 μg compound per seed): 28.7 c-g | No. A4922 Emerged, Light soil ([3]; 10 μg compound per seed): 39.7 f-j | A4922 Height, cm, Heavy soil ([3]; 100 μg compound per seed): 21.0 a cm | A4922 Height, cm, Light soil ([3]; 100 μg compound per seed): 27.0 ab cm | No. A4922 Emerged, Heavy soil ([3]; 100 μg compound per seed): 19.7 efg | No. A4922 Emerged, Light soil ([3]; 100 μg compound per seed): 38.0 hi

C=C1C[C@]23C[C@@]1(O)CC[C@H]2[C@@]12C=C[C@H](OC(C)=O)[C@@](C)(C(=O)O1)[C@H]2[C@@H]3C(=O)O [GA3-3-acetate]
effect on line 46 total height [1]: rescued AX5/asCPScc soybean line 46 total height, with some hypocotyl over-elongation | Count (emergence) [2, 4]: 29.0 a-d | Height (total plant height) [2, 4]: 5.3 g·cm·days | Count (emergence) [2, 22]: 15.3 f | Height (total plant height) [2, 22]: 6.0 c-f cm | Count (emergence) [2, 5]: 7 | Height (total plant height) [2, 5]: 8.0 ab cm | Count (emergence) [2, 8]: 4.0 de | Height (total plant height) [2, 8]: 5.3 b-e cm | Count (emergence) [2, 23]: 6.0 cde | Height (total plant height) [2, 23]: 5.7 bcd cm | Count (emergence) [2, 9]: 0 e | Count (emergence) [2, 12]: 29 a-d | Height (total plant height) [2, 12]: 5.3 g·cm·days | Count (emergence) [2, 13]: 15 f | Height (total plant height) [2, 13]: 6.0 c-f cm | Count (emergence) [2, 14]: 28 bcd | Height (total plant height) [2, 14]: 6.3 cm·days | Count (emergence) [2, 15]: 18 def | Height (total plant height) [2, 15]: 8.7 c cm | Count (emergence) [2, 16]: 44.3 abc | Height (total plant height) [2, 16]: 6.3 f cm | Count (emergence) [2, 17]: 42.0 abc | Height (total plant height) [2, 17]: 9.7 bc cm | Count (emergence) [2, 18]: 42.3 abc | Height (total plant height) [2, 18]: 10.3 b cm | Count (emergence) [2, 19]: 27.7 cd | Height (total plant height) [2, 19]: 6.3 cm·days | Count (emergence) [2, 20]: 18.0 def | Height (total plant height) [2, 20]: 8.7 c cm | Count (emergence) [2, 21]: 22.7 dc | Height (total plant height) [2, 21]: 11.0 ab cm | plant height dose/response in wild-type line A4922 (FIG. 40) ([2]; in vivo): dose/response curves similar to that of GA3
